What all share (format): functional
One assay deals with CCRF-CEM. Description: Antiproliferative activity against human CCRF-CEM cells.
Another assay concerns HL-60. Description: Antiproliferative activity against human HL60 cells.
Another assay concerns MOLT-4. Description: Antiproliferative activity against human MOLT4 cells.
In another assay the test system is RPMI-8226. The assay is described as follows: Antiproliferative activity against human RPMI8226 cells.
A further assay has as its system SR. The assay is described as follows: Antiproliferative activity against human SR cells.
A further assay relates to EKVX. Description: Antiproliferative activity against human EKVX cells.
The test system of another assay is HOP-92. Description: Antiproliferative activity against human HOP92 cells.
A further assay deals with HCT-116. Description: Antiproliferative activity against human HCT116 cells.
The test system of a further assay is HCT-15. Description: Antiproliferative activity against human HCT15 cells.
A further assay deals with SF-295. Description: Antiproliferative activity against human SF295 cells.
The test system of the next assay is SNB-75. Description: Antiproliferative activity against human SNB75 cells.
The next assay concerns LOX IMVI. The assay is described as follows: Antiproliferative activity against human LOX IMVI cells.
Another assay concerns SK-MEL-5. The assay is described as follows: Antiproliferative activity against human SK-MEL-5 cells.
The next assay has as its system UACC-62. The assay is described as follows: Antiproliferative activity against human UACC62 cells.
The next assay relates to 786-0. The assay is described as follows: Antiproliferative activity against human 786-0 cells.
The next assay relates to CAKI-1. Description: Antiproliferative activity against human CAKI-1 cells.
The next assay has as its system UO-31. Description: Antiproliferative activity against human UO31 cells.
The test system of a further assay is PC-3. The assay is described as follows: Antiproliferative activity against human PC3 cells.
A further assay relates to DU-145. The assay is described as follows: Antiproliferative activity against human DU145 cells.
Another assay deals with Hs-578T. Description: Antiproliferative activity against human HS578T cells.
Assay [1] can be described thus: Antiproliferative activity against human […] cells.
The test system of another assay is SF-539. The assay is described as follows: Antiproliferative activity against human SF539 cells.

One may read the GI50 as the concentration that inhibits growth by half. A higher GI50 goes with less potent growth inhibition.

Regarding `COc1ccc(-n2cc(-c3ccc(OC)c(OC)c3)[nH]c2=S)cc1Cl`, the 50% growth inhibitory concentration (GI50) in the assay on CCRF-CEM was more than 100 µM; in the assay with HL-60, more than 100 µM; in the assay with MOLT-4 it was 79.4 µM; with RPMI-8226 it was more than 100 µM; with SR, more than 100 µM; in the assay on EKVX, 39.8 µM. Besides, the GI50 in the assay with HOP-92 was 39.8 µM; with HCT-116 it was more than 100 µM; in the assay with HCT-15 it was more than 100 µM; with SF-295 it was 39.8 µM; in the assay with SNB-75, 5.01 µM; in the assay with LOX IMVI, more than 100 µM. The GI50 in the assay on SK-MEL-5 was more than 100 µM; in the assay with UACC-62, more than 100 µM; with 786-0, 50.1 µM; in the assay on CAKI-1, more than 100 µM; with UO-31, more than 100 µM; in the assay with PC-3, more than 100 µM. The GI50 is more than 100 µM in the assay with DU-145, 39.8 µM in the assay with Hs-578T, more than 100 µM in assay [1] and 39.8 µM with SF-539.

In the case of `COc1cc(-n2cc(-c3ccc(Cl)cc3)[nH]c2=O)cc(OC)c1OC`, the GI50 in the assay on CCRF-CEM is less than 0.01 µM; in the assay with HL-60, more than 100 µM; in the assay on MOLT-4, more than 100 µM; in the assay with RPMI-8226, 12.6 µM; in the assay on SR, more than 100 µM; in the assay on EKVX, 31.6 µM. The GI50 in the assay with HCT-116 was 31.6 µM; in the assay on HCT-15, more than 100 µM; in the assay on SF-295, 31.6 µM; with SNB-75 it was 25.1 µM; with LOX IMVI it was 63.1 µM; in the assay on SK-MEL-5 it was 31.6 µM. For the same molecule, the GI50 in the assay with UACC-62 was 25.1 µM; in the assay with 786-0 it was 15.8 µM; in the assay on CAKI-1 it was 15.8 µM; in the assay with UO-31 it was 20 µM; in the assay with PC-3, 15.8 µM; with DU-145 it was 63.1 µM. The figures for the concentration for 50% growth inhibition (GI50) with Hs-578T and in the assay on SF-539 were 79.4 µM and 25.1 µM, respectively.

With `COc1cc(-n2cc(-c3ccccc3)[nH]c2=O)cc(OC)c1OC`, the 50% growth inhibitory concentration (GI50) with HL-60 was 63.1 µM; with MOLT-4, more than 100 µM; in the assay on RPMI-8226 it was more than 100 µM; in the assay on SR, more than 100 µM; in the assay on EKVX it was 25.1 µM; in the assay with HOP-92 it was 20 µM. Also, the GI50 was 63.1 µM in the assay on HCT-116; 79.4 µM with HCT-15; 39.8 µM with SF-295; 12.6 µM in the assay on SNB-75; more than 100 µM in the assay with LOX IMVI; 39.8 µM with SK-MEL-5. Also, the GI50 with UACC-62 was 39.8 µM; with 786-0, 25.1 µM; with CAKI-1 it was 39.8 µM; in the assay with UO-31, 39.8 µM; in the assay on PC-3, 39.8 µM; in the assay with DU-145, 1.58 µM. The GI50 was 31.6 µM in the assay on Hs-578T, 31.6 µM in assay [1] and 20 µM in the assay with SF-539.

Regarding `COc1ccc(-n2cc(-c3cc(OC)c(OC)c(OC)c3)[nH]c2=O)cc1Cl`, the GI50 is more than 100 µM in the assay on CCRF-CEM; more than 100 µM with HL-60; more than 100 µM in the assay on MOLT-4; more than 100 µM in the assay on RPMI-8226; 50.1 µM in the assay on SR; more than 100 µM with EKVX. Also, the GI50 in the assay on HOP-92 was 15.8 µM; in the assay with HCT-116 it was more than 100 µM; in the assay on HCT-15, more than 100 µM; in the assay on SF-295, 39.8 µM; in the assay with SNB-75, 6.31 µM; with LOX IMVI it was more than 100 µM. For the same molecule, the GI50 in the assay with SK-MEL-5 was more than 100 µM; with UACC-62, 50.1 µM; in the assay on 786-0, 25.1 µM; with CAKI-1 it was more than 100 µM; in the assay with UO-31, more than 100 µM; in the assay on PC-3 it was more than 100 µM. The GI50 was 31.6 µM in the assay with Hs-578T, more than 100 µM in assay [1] and 31.6 µM in the assay with SF-539.
